Test results published in patent US20220411847A1, “GLUCOSE/GALACTOSE BIOSENSORS AND METHODS OF USING SAME” (Duke University, priority 2015, published 2022).

How the values were obtained:
[1] = Thermal denaturation followed by fluorescence ratio, two-state fit; assay type: physicochemical; settings: thermal stability of the 183C acrylodan conjugate mutant
Method: (§1) The titration series were mixed with GGBP183C⋅acrylodan or BD_SM4⋅acrylodan conjugates in 384-well microtiter plates. The temperature dependence of the titrations was measured in a real-time PCR machine (Roche LightCycler 480) by determining the ratio of fluorescence emission intensities at 488, 510, and 580 nm (excitation at 440 nm) as a function of temperature (290-370K). Temperatures were advanced in 1K steps. At each temperature data was collected for at 1-second intervals for 60 seconds at which point the signal had relaxed to a steady value associated with the new temperature. Collection times were adjusted to minimize photobleaching (which was not detectable under these experimental conditions). Data reduction software was developed to convert these observations into time-independent datasets that record fluorescence as a function of temperature for each well and associate wells with their concentration of titrant and additive. Management tools were developed to maintain a database of titrations and their analyses.
Fits of these equation systems to experimental observations such as shown in FIG. 5 require good initial estimates of the parameters. These can then be refined using multi-dimensional conjugate gradient methods. To obtain local fits for protein thermostability in the absence of ligand we solve
This gives excellent fits (FIG. 7).

[2] = Galactose titration at room temperature on Nanodrop3300 fluorimeter; assay type: binding; settings: ^e noisy data
Method: (§2) In addition to the Roche LightCycler, which has a limited choice of emission wavelengths, data for selected mutants also was measured at room temperature on a Nanodrop3300 (Thermo Scientific) fluorimeter, which records full emission spectra. Emission intensities at a particular wavelength were extracted by integration of the spectral emission intensities over a 20-nm interval centered on that wavelength.
(§3) Signals S (either single-wavelength emission intensities, LT, or ratios of intensities at two wavelengths, Rig) were fit to ligand-binding isotherms:
(§4) where [L] is the ligand concentration and Kd the dissociation constant corresponding to ^appKd or ^trueKd for fits to R12 (weighted by the relative contributions of ^satβ at the two different wavelengths) and Iλ respectively. For a given isothermal titration, values for ^appKd and ^true Kd were obtained using a non-linear fitting algorithm in which these two parameters were simultaneously fit to the three experimental binding isotherms using equations 29 and 30, with the two monochromatic isotherms sharing the same ^trueKd value. Three separate pairs of ^apoβ and ^satβ were fit in this procedure.

[3] = Glucose titration at room temperature on Nanodrop3300 fluorimeter; assay type: binding
Method: as §2, §3, §4

[4] = Fluorescence emission response to ligand binding; set-up: key to Response Intensity^c: +, increases in response to ligand; —: decreases; 0, no change in the glucose titration; key to Response Shape^b: m, monochromatic; d, dichromatic (i.e. spectral shape changes); 0, no change in the glucose titration; settings: glucose titration; Nanodrop3300; room temperature
Method: as §1, §2

[5] = Galactose affinities of the mutants that bind glucose (Roche LightCycler); assay type: binding; settings: trueKd at 25° C., 183C acrylodan conjugates, read-out: Kd^298K(galactose)/mM
Source text: (§5) Analysis of mutant affinity values: Isothermal glucose titrations were extracted from the fluorescent landscape or emission datasets as described above. Monochromatic emission intensities Iλ. (these intensities correspond to a bandpass intensity recorded with a physical filter in the case of the Roche LightCycler) were fit to
(§6) where ^apoIλ2 ^apoIλ2 and ^satIλ2^satIλ2 are the emission intensities of the monochromatic signal at wavelength λ2λ2 of the ligand-free and ligand-bound protein, respectively. Equation 28 illustrates that the ^appKd ^appKd values obtained by fits of 25 to ratiometric signals are wavelength dependent. To obtain wavelength-independent values needed for comparison of mutant proteins, it is necessary to simultaneously fit ^appKd ^appKd to the ratiometric signal and ^trueKd ^trueKd to the two monochromatic signals. For a given isothermal titration, values for ^appKd ^appKd and ^trueKd ^trueKd were obtained using a non-linear fitting algorithm in which these two parameters were simultaneously fit to the three experimental binding isotherms using equations 23 and 27, with the two monochromatic isotherms sharing the same ^trueKd ^trueKd value. Three separate pairs of linear ^apoβ ^apoβ and ^satβ ^satβ baselines were fit in this procedure. TABLES 1-5 record the ^trueKd ^trueKd values at 25° C., obtained by analysis of Roche LightCycler data in 488 nm and 510 nm channels. The uncertainty of the fit (‘error’) was obtained using a boot-strapping technique in which 37% of the data was replicated. In all cases, no binding was recorded if one of ^appKd ^appKd or ^trueKd ^trueKd exceeded 200 mM. The glucose constant of GGBP183 C-acrylodan is 4.21±0.08 mM at 25° C.
The galactose affinities for those mutants that bind glucose were also determined.

[6] = Isothermal glucose titrations from fluorescent landscapes (Roche LightCycler); assay type: binding
Method: as §1
The response of acrylodan to glucose binding was separated from the effects of thermal denaturation by extracting binding isotherms within the temperature range where the apo-protein remains >99% folded (T<320 K; FIG. 7). Within this temperature range, binding isotherms were constructed by extracting fluorescence values across different wells, each containing different glucose concentrations, at a given temperature, and fit individually with high accuracy to isotherms (FIG. 8):
using linear baselines which vary individually in accordance with the tilt of the S, S1, and S2 baseplanes that correspond the saturated glucose complex. The individually fit Kd(T) values were converted into ΔGb(T) and fit to the Gibbs-Helmholtz equation 9 (FIG. 9).
as §5, §6

[7] = as above; assay type: binding; settings: 37° C.; mutations in GGBP183C⋅acrylodan; read-out: glucose Kd values at 37° C.
[8] = apparent, ratiometric signal at the listed wavelength pair, read-out: Affinities (mM)^d Galactose ^appKd
[9] = from monochromatic signals, read-out: Affinities (mM)^d Galactose ^trueKd
[10] = apparent, ratiometric signal at the listed wavelength pair, read-out: Affinities (mM)^d Glucose aPPKa
[11] = from monochromatic signals, read-out: Affinities (mM)^d Glucose trueKa
[12] = trueKd at 25° C., 183C acrylodan conjugates, LightCycler 488 nm and 510 nm channels, ± = bootstrap uncertainty of fit, read-out: Kd^298K(glucose)/mM
[13] = 25° C., read-out: glucose affinities

Substance: A155F: GGBP 183C acrylodan conjugate with mutation A155F
- Tm/K [1]: 321 K
- Kd [2, 8]: 0.82 mM
- Kd [2, 9]: 0.93 mM
- Kd [3, 10]: 0.06 mM
- Kd [3, 11]: 0.06 mM
- Response Intensity^c [4]: —
- Response Shape^b [4]: m

Substance: A155H: GGBP 183C acrylodan conjugate with mutation A155H
- Tm/K [1]: 314 K
- Kd [5]: 17.7 ± 2.1 mM
- Kd [6, 12]: 13.5 ± 2.5 mM

Substance: A155K: GGBP 183C acrylodan conjugate with mutation A155K
- Tm/K [1]: 318 K

Substance: A155L: GGBP 183C acrylodan conjugate with mutation A155L
- Tm/K [1]: 320 K

Substance: A155M: GGBP 183C acrylodan conjugate with mutation A155M
- Tm/K [1]: 321 K
- Kd [2, 8]: 6.7 mM
- Kd [2, 9]: 8.7 mM
- Kd [3, 10]: 0.05 mM
- Kd [3, 11]: 0.05 mM
- Response Intensity^c [4]: —
- Response Shape^b [4]: m

Substance: A155Q: GGBP 183C acrylodan conjugate with mutation A155Q
- Tm/K [1]: 321 K

Substance: A155S: GGBP 183C acrylodan conjugate with mutation A155S
- Tm/K [1]: 321 K
- Kd [3, 10]: 0.31 mM
- Kd [3, 11]: 0.35 mM
- Response Intensity^c [4]: —
- Response Shape^b [4]: m?

Substance: A155W: GGBP 183C acrylodan conjugate with mutation A155W
- Tm/K [1]: 322 K

Substance: A155Y: GGBP 183C acrylodan conjugate with mutation A155Y
- Tm/K [1]: 321 K

Substance: D14A: GGBP 183C acrylodan conjugate with mutation D14A
- Tm/K [1]: 317 K
- Kd [5]: 90 ± 21 mM

Substance: D14E: GGBP 183C acrylodan conjugate with mutation D14E
- Tm/K [1]: 318 K

Substance: D14H: GGBP 183C acrylodan conjugate with mutation D14H
- Tm/K [1]: 317 K

Substance: D14L: GGBP 183C acrylodan conjugate with mutation D14L
- Tm/K [1]: 311 K

Substance: D14N: GGBP 183C acrylodan conjugate with mutation D14N
- Tm/K [1]: 317 K

Substance: D14T: GGBP 183C acrylodan conjugate with mutation D14T
- Tm/K [1]: 316 K

Substance: D154A: GGBP 183C acrylodan conjugate with mutation D154A
- Tm/K [1]: 320 K

Substance: D154N: GGBP 183C acrylodan conjugate with mutation D154N
- Tm/K [1]: 318 K

Substance: D236A: GGBP 183C acrylodan conjugate with mutation D236A
- Tm/K [1]: 320 K

Substance: D236N: GGBP 183C acrylodan conjugate with mutation D236N
- Tm/K [1]: 320 K

Substance: F16A: GGBP 183C acrylodan conjugate with mutation F16A
- Tm/K [1]: 319 K

Substance: F16L: GGBP 183C acrylodan conjugate with mutation F16L
- Tm/K [1]: 321 K

Substance: GGBP16C-acrylodan: F16C mutant of E. coli GGBP, acrylodan conjugate
- Kd [6, 13]: ~0.2 mM

Substance: GGBP16C-badan: F16C mutant of E. coli GGBP, badan conjugate
- Kd [6, 13]: ~0.2 mM

Substance: H152A: GGBP 183C acrylodan conjugate with mutation H152A
- Tm/K [1]: 316 K

Substance: H152F: GGBP 183C acrylodan conjugate with mutation H152F
- Tm/K [1]: 321 K
- Kd [6, 12]: 21.1 ± 0.9 mM
- Kd [3, 10]: 15 mM
- Kd [3, 11]: 16 mM
- Kd [7]: ~17 mM
- Response Intensity^c [4]: —
- Response Shape^b [4]: d

Substance: H152K: GGBP 183C acrylodan conjugate with mutation H152K
- Tm/K [1]: 319 K

Substance: H152N: GGBP 183C acrylodan conjugate with mutation H152N
- Tm/K [1]: 322 K
- Kd [2, 8]: 21 mM
- Kd [2, 9]: 21 mM
- Kd [6, 12]: 18.8 ± 1.3 mM
- Kd [3, 10]: 20 mM
- Kd [3, 11]: 15 mM
- Kd [7]: ~14 mM
- Response Intensity^c [4]: —
- Response Shape^b [4]: d

Substance: H152Q: GGBP 183C acrylodan conjugate with mutation H152Q
- Tm/K [1]: 322 K
- Kd [6, 12]: 25.8 ± 2 mM
- Kd [3, 10]: 4.6 mM
- Kd [3, 11]: 5.1 mM
- Kd [7]: ~36 mM
- Response Intensity^c [4]: —
- Response Shape^b [4]: d

Substance: K92A: GGBP 183C acrylodan conjugate with mutation K92A
- Tm/K [1]: 323 K

Substance: M182W: GGBP 183C acrylodan conjugate with mutation M182W
- Tm/K [1]: 322 K

Substance: N91A: GGBP 183C acrylodan conjugate with mutation N91A
- Tm/K [1]: 326 K

Substance: N211A: GGBP 183C acrylodan conjugate with mutation N211A
- Tm/K [1]: 317 K

Substance: N211F: GGBP 183C acrylodan conjugate with mutation N211F
- Tm/K [1]: 323 K

Substance: N211H: GGBP 183C acrylodan conjugate with mutation N211H
- Tm/K [1]: 320 K

Substance: N211K: GGBP 183C acrylodan conjugate with mutation N211K
- Tm/K [1]: 315 K

Substance: N211M: GGBP 183C acrylodan conjugate with mutation N211M
- Tm/K [1]: 317 K

Substance: N211Q: GGBP 183C acrylodan conjugate with mutation N211Q
- Tm/K [1]: 317 K
- Kd [3, 10]: 29 mM
- Kd [3, 11]: 22 mM
- Response Intensity^c [4]: —
- Response Shape^b [4]: d

Substance: N211S: GGBP 183C acrylodan conjugate with mutation N211S
- Tm/K [1]: 319 K

Substance: N211W: GGBP 183C acrylodan conjugate with mutation N211W
- Tm/K [1]: 328 K

Substance: N211Y: GGBP 183C acrylodan conjugate with mutation N211Y
- Tm/K [1]: 316 K

Substance: N256A: GGBP 183C acrylodan conjugate with mutation N256A
- Tm/K [1]: 324 K

Substance: N256D: GGBP 183C acrylodan conjugate with mutation N256D
- Tm/K [1]: 321 K

Substance: R158A: GGBP 183C acrylodan conjugate with mutation R158A
- Tm/K [1]: 322 K

Substance: R158K: GGBP 183C acrylodan conjugate with mutation R158K
- Tm/K [1]: 318 K

Substance: Y10A: GGBP 183C acrylodan conjugate with mutation Y10A
- Tm/K [1]: 326 K
